Laboratory results reported in ChEMBL document CHEMBL3507680, “University of Dundee, Gates Library screen for HepG2 cell viability”.

Experiment: Human HepG2 cell viability assay in 384 well format
Assay type: toxicity, cell-based
Parameters: dose 125 nL, time 70.5 hour; concentration not given beside the values
Conditions: HepG2 cells, read-out: Inhibition

| Structure (SMILES) | cytotoxicity at 70.5 h [%] |
| --- | --- |
| CNc1cc(C)nc(C2CCN(CCO)CC2)n1 | -6.23 |
| COCCN1CCN(c2nc(O)cc(Cc3ccccc3F)n2)CC1 | -5.81 |
| O=C1CCC[C@]2(CN(S(=O)(=O)C3CCCCC3)C[C@H]2c2cccnc2)N1 | -3.41 |
| CC(=O)N1CCC(c2cccc(-c3cccc(C(=O)O)c3)n2)CC1 | -0.201 |
| CC(=O)N1CCC(c2cccc(Oc3ccccc3)n2)CC1 | -3.81 |
| COCC(=O)N1CCC(c2cc(N(C)C)cc(C)n2)CC1 | 25.5 |
| Cc1ccc(N2CCOC(C)(C(=O)N(C)C)C2)nn1 (stereo not given) | -6.16 |
| Cc1nn(C)cc1NC(=O)CC1CCN(CCc2ccccc2)CC1 | -7.48 |
| Cc1cc(N2CCOC(C)(C(=O)N(C)C)C2)ncn1 (stereo not given) | -6.62 |
| O=C(c1ccc(=O)[nH]n1)N1CCNCC1c1ccccc1 (stereo not given) | -2.98 |
| NCc1cccc(-c2cccnc2C(=O)NCCCN2CCOCC2)c1 | -3.76 |
| CNc1nccnc1C1CN(Cc2ccc3[nH]ccc3c2)CCO1 (stereo not given) | -2.11 |
| CC(C)(C)n1nnnc1CN(Cc1ccccc1)Cc1ccccc1Cl | -5.12 |
| O=C(c1cc2c(s1)CCC2)N1CCC(c2ccncc2)CC1 | 15.8 |
| COCCNc1nnc(-c2ccccn2)s1 | -4.27 |
| COc1ncc(CN(C)C2CCN(C(C)C)CC2)cn1 | 8.08 |
| c1cc(-c2cnc(NC3CC3)nc2[C@H]2CCCO2)ccn1 | -7.2 |
| c1cc(-c2cncc(C3CCNCC3)n2)n[nH]1 | -6.89 |
| CC(C)(C)C(=O)N1CCCC1c1nccnc1Cl (stereo not given) | -8.54 |
| O=C(NCc1ccccn1)c1cnc(C2CCCN2)cn1 (stereo not given) | -4.69 |
| Cc1nccc(C2CCCN(C(=O)c3cncnc3)C2)n1 (stereo not given) | -5.03 |
| CC(=O)N1CCCC(c2nccnc2-c2ccc(CO)cc2)C1 (stereo not given) | -5.35 |

| Structure (SMILES) | cytotoxicity at 70.5 h [%] |
| --- | --- |
| COCC(=O)N1CCN(C)C(=O)C(Cc2ccccc2-c2cccs2)C1 (stereo not given) | 1.61 |
| CC(C)(C)n1nnnc1CN(Cc1ccccc1)Cc1ccc(Cl)cc1 | 8.17 |
| COCCN1CCCC(c2ncc(C(=O)N(C)C)c(C)n2)C1 (stereo not given) | -1.17 |
| Cn1c(=O)cc(C(=O)NC(Cc2ccsc2)c2cccnc2)[nH]c1=O (stereo not given) | -3.19 |
| Cc1cnc(-c2nc(O)c3c(n2)CN(C(=O)C2CCCC2)CC3)cn1 | -1.77 |
| COc1ccccc1-c1ccccc1CC1(C(=O)O)CCNCC1 | 0.76 |
| Fc1cccc(CN2CCC(c3noc(-c4ccccn4)n3)CC2)c1F | -0.639 |
| O=C(Cn1cccc2cc(-c3ccc(F)cc3)nc1-2)N1CCC(O)CC1 | 3.41 |
| CC(=O)N[C@@H]1CN(C(=O)CC2CCOCC2)C[C@H]1O | -1.61 |
| Clc1ccc(CN(CCN2CCOCC2)Cc2cccnc2)c(Cl)c1 | -5.57 |
| Cc1ncc(CN(C)C)c(C2CCCN2c2ncccn2)n1 (stereo not given) | -7.95 |
| Cc1cc(CCC2CN(CC3(O)CCCCC3)CCO2)ncn1 (stereo not given) | 19.4 |
| O=C(Cc1cccc(O)c1)N1CCCC(O)(CN2CCCC2)CC1 (stereo not given) | -6.1 |
| c1ccc(CN2CCN(Cc3cnc(C4CCCCO4)nc3)CC2)cc1 (stereo not given) | 1.9 |
| c1nc(C2CCCCO2)ncc1CN1CCOCC1 (stereo not given) | -4.04 |
| CC(=O)N1CCCC(Cc2cnc(-c3c(C)nn(C)c3C)cn2)C1 (stereo not given) | -7.67 |
| COc1cccc(S(=O)(=O)N2C[C@H](OC)[C@]3(CCCO3)C2)c1 | -4.33 |
| CO[C@H]1CN(S(=O)(=O)c2ccccc2F)C[C@@]12CCCO2 | -7.14 |
| O=C(c1ccc(-n2cccn2)nc1)N1CCC(c2ccn[nH]2)C1 (stereo not given) | -8.23 |
| CS(=O)(=O)CCN1CCN(c2ccc(Cl)cn2)CC1 | 1.44 |
| O=C(NCCc1nncn1C1CC1)C1(c2ccccc2)CCC1 | -5.9 |
| COCCS(=O)(=O)NC(C)c1cccc(-n2cccn2)c1 (stereo not given) | 0.445 |

| Structure (SMILES) | cytotoxicity at 70.5 h [%] |
| --- | --- |
| CCC(NC(=O)c1ccc(OC)nn1)c1nc(C(F)(F)F)cs1 (stereo not given) | -6.03 |
| CCCS(=O)(=O)CC(=O)NC(C)c1cccc(-n2cccn2)c1 (stereo not given) | 10.5 |
| CC(NCc1cnn(C)c1)c1noc(-c2ccc(Cl)cc2)n1 (stereo not given) | -5.15 |
| CCC(C)Oc1cc(C(=O)N(c2cccnc2)C(C)C)ccn1 (stereo not given) | 0.858 |
| CC(NS(=O)(=O)N(C)C)c1cccc(-n2cccn2)c1 (stereo not given) | -3.97 |
| O=C(C1CC1)N(CCc1ccccc1)C1CCOC1 (stereo not given) | -6.28 |
| Cn1ccnc1C(O)(CCNCc1ccc(Cl)o1)C(F)(F)F (stereo not given) | -14.8 |
| Cn1ccnc1C(O)(CCNCc1ccco1)C(F)(F)F (stereo not given) | 5.83 |
| CC(=O)N1CCC(Oc2cccc(C#N)c2)CC1 | 13.4 |
| Cn1cc(C(NCc2ccc(F)cc2)c2cccc(F)c2)cn1 (stereo not given) | -13.5 |
| COc1ccc(CN2CCCC(n3cccn3)C2)c(Cl)c1OC (stereo not given) | -9 |
| CC(C(=O)N(C)Cc1ccc(Br)o1)n1cncn1 (stereo not given) | -1.04 |
| COc1cccc(COCC(=O)NC2CCN(CC(N)=O)CC2)c1 | -5.13 |
| Cc1ccc(S(=O)(=O)NCc2[nH]ncc2Br)cc1C | -8.92 |
| Cc1ccc(C(C)NC(=O)Cc2c(C)nc3cc(=O)[nH]n3c2C)s1 (stereo not given) | -10.8 |
| CC/C=C(/C)C(=O)N1CSCC1C(=O)NC1=NCCS1 (stereo not given) | -7.18 |
| Cc1ccc(NC2CCN(C(=O)CCC3CCCO3)CC2)nn1 (stereo not given) | -3.33 |
| CCC(C)(O)CNc1ccc(S(=O)(=O)C(F)F)cc1 (stereo not given) | -5.3 |
| CNC(=O)C(CC(C)C)NC(=O)c1cccc(-c2nc(C)cs2)c1 (stereo not given) | 15.4 |
| COCC(O)CNc1cncc(Br)c1 (stereo not given) | -2.5 |
| Cc1ccc(CNC(=O)c2ccc(CNS(C)(=O)=O)o2)cc1F | 17.8 |
| O=C(CCc1nc(-c2cccnc2)no1)N(CC1CCOC1)C1CC1 (stereo not given) | 12 |

| Structure (SMILES) | cytotoxicity at 70.5 h [%] |
| --- | --- |
| CC(C)(C)c1noc(CCC(=O)N(CC2CCOC2)C2CC2)n1 (stereo not given) | 2.82 |
| COCCN1CC(C(=O)N(C)Cc2ccc(Cl)s2)CC1=O (stereo not given) | -10.5 |
| Cc1ccc(CN(C)C(=O)C(C)n2cncn2)o1 (stereo not given) | -4.1 |
| COc1c(C)cnc(CN2CCn3c(nnc3C3CC3)C2)c1C | -2.97 |
| c1ccc(CCN2CCC(OCC3CCCCO3)CC2)nc1 (stereo not given) | 5.3 |
| Cc1cccc2nc(CN3CCC(N4CCN(C)C4=O)CC3)cn12 | -4.38 |
| CC(C)(C)NC(=O)CNc1ncccn1 | -8.78 |
| CN(C)CCN(Cc1ccc(Cl)cc1)C(=O)c1ccn(C)c(=O)c1 | -5.83 |
| Cc1cc(C(=O)NC(C)Cc2ccc(N(C)C)cc2)n(C)n1 (stereo not given) | -1.34 |
| Cc1cc(C)n2cc(CN3CCC(N4CCN(C)C4=O)CC3)nc2n1 | -0.599 |
| c1cnc(N2CCC(OCC3CCCCO3)CC2)nc1 (stereo not given) | -2.08 |
| COC(=O)NCC(=O)N1CCC(c2cc3ccccc3[nH]2)CC1 | -8.79 |
| CNC(=O)c1cc(C2CCCNC2)n[nH]1 (stereo not given) | 21.1 |
| CNCC(=O)N1CCCC1c1n[nH]cc1-c1ccccc1F (stereo not given) | 0.833 |
| CC1CCN(C(=O)C2(Cc3cc(C4CCOC4)no3)CCNCC2)CC1 (stereo not given) | -1.77 |
| NCC(=O)N1CCCC1c1n[nH]cc1-c1ccccc1F (stereo not given) | 25.4 |
| CCn1cncc1CN1CCN(CC2(c3ccc(C)cc3)CC2)CC1 | 12 |
| Cc1cc(C)nc(C2CCCNC2)n1 (stereo not given) | 17.9 |
| CN(Cc1cccc2cccnc12)C1CCS(=O)(=O)C1 (stereo not given) | 24.2 |
